Source: PMC12207533, “Structure-guided design of a methyltransferase-like 3 (METTL3) proteolysis targeting chimera (PROTAC) incorporating an indole–nicotinamide chemotype” (RSC Medicinal Chemistry, 2025)

What was measured:
[1] = target: T1, METTL3 (Homo sapiens, UniProt Q86U44); test: Immunoblotting of METTL3 protein levels in MOLM-13 cells; type: cell-based; details: MOLM-13, 0.1-10 μM, 16 h
T1 construct: endogenous in cells; host or cells: MOLM-13
Experimental: MOLM-13 were seeded in 12-well cell culture plates at a density of 1 × 10^6 cells per mL and treated with DMSO (final: 0.1%) or different concentrations of PROTAC degraders in DMSO at the indicated times. Treatments were conducted in biological triplicate with varying passages of MOLM-13 cells. The cells were harvested by centrifugation at 500g for 5 min and washed with PBS. The cells were lysed with RIPA lysis buffer with the addition of protease inhibitor (1× cOMPLETE), and insoluble cellular parts were separated by centrifugation (12 000g for 10 min), subsequently, the supernatant was boiled with 1× Laemmli sample buffer (Carl Roth) for 5 min at 95 °C. Proteins were separated by SDS–PAGE on 4–20% Criterion™ TGX™ Precast Protein Gels (Bio-Rad) and transferred to Amersham™ Protean® 0.45 μm nitrocellulose membrane (Cytiva) using semi-dry transfer (25 V, 1 A, Towbin buffer). The membrane was blocked with 5% milk (Carl Roth) in TBST buffer and incubated with the following primary antibodies: Anti-METTL3 (1 : 1000, Abcam, ab195352), anti-METTL14 (1 : 1000, Abcam, ab220030), anti-Bcl2 (1 : 1000, Cell Signaling Technology [CST], EPR16891), anti-Mcl-1 (1 : 1000, CST, 5453 T), anti-Bcl-XL (1 : 1000, CST, 2764 T), anti-vinculin (1 : 1000, CST, 13901) or anti-GAPDH (1 : 5000, CST, D17C4) overnight at 4 °C. Subsequently, the membrane was incubated for 1 h at RT with secondary antibodies: anti-rabbit (1 : 2000, VWR, NA934) or anti-mouse (1 : 2000, VWR, 102646-160). The protein bands were detected via chemiluminescence using Pierce™ ECL western blotting substrate and a Fusion FX imaging system (Vilber). The ImageLab software (Bio-Rad) was used for band quantification.

[2] = tested on: MOLM-13 cells; test: Cell viability assay (CellTiter Glo 2.0); type: cell-based, human; details: MOLM-13, 72 h; read-out: IC50 (cell viability inhibition)
Experimental: To determine cell viability, MOLM-13 cells were treated with the indicated compounds in a 1 : 1 serial dilution, with pure DMSO (final: 0.1%) as the negative control. Briefly, 1000 cells were seeded in black Greiner half-area 96-well plates and incubated for 72 h with inhibitors from DMSO stocks under standard cultivation conditions. Then, Promega CellTiter Glo 2.0 reagent was added to each well according to the manufacturer's protocols, and luminescence was measured using a Tecan Spark 10 M. Experiments were conducted in technical triplicate. Data was normalized to the DMSO control and analyzed with GraphPad Prism 8.0.1 to determine EC50 values. Synergistic effects of venetoclax and AF151 on cell MOLM-13 viability were conducted accordingly, with dilution series of both compounds analyzed using the SynergyFinder+ webtoolkit.[57]

[3] = tested on: METTL3 mRNA; test: RT-qPCR of METTL3 mRNA expression; type: cell-based, human; details: MOLM-13, AF151 2 μM or STM2457 10 μM, 24 h and 48 h
Experimental: (§1) To determine mRNA expression levels of METTL3 and METTL14, MOLM-13 cells were treated in triplicate with compound 41 (AF151, 2 μM), STM2457 (10 μM), and DMSO for 24 resp. 48 h. Afterward, total RNA was extracted using the TRIzol™ reagent (Thermo Fisher Scientific) and purified with the Monarch® Spin RNA Cleanup Kit (New England Biolabs). RT-qPCR was conducted using the two-step GoTaq® RT-qPCR system (Promega) following the manufacturer's protocol. The data were normalized to the DMSO control and GAPDH housekeeping gene (ΔΔCt) using GraphPad Prism 8.0.1.

[4] = tested on: METTL14 mRNA; test: RT-qPCR of METTL14 mRNA expression; type: cell-based, human; details: MOLM-13, AF151 2 μM or STM2457 10 μM, 24 h and 48 h
Experimental: as §1

[5] = target: METTL3; design: method as in PMID 33902106; details: cited from earlier work

T1 sequence (Q86U44 whole entry): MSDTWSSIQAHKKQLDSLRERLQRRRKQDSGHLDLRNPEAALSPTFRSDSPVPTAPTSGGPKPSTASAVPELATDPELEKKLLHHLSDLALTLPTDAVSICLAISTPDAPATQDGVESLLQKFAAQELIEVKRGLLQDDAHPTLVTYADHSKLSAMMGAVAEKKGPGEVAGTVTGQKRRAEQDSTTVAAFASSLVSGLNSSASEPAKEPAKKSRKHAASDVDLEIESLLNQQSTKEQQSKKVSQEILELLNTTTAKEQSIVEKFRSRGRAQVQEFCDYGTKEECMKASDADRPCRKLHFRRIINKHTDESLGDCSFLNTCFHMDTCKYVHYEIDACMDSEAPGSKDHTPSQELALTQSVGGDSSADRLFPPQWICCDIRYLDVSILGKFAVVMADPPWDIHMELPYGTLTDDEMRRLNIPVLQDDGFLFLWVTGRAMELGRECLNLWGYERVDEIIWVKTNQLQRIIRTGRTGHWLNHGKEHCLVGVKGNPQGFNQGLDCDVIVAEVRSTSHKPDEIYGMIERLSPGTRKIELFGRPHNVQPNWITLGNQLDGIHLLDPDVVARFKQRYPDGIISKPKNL

Molecule | METTL3 degradation (Western blot screening) [1] | IC50 [2] | METTL3 mRNA level (ΔΔCt) [3] | METTL14 mRNA level (ΔΔCt) [4] | Kd [5]
STM2457 [reference compound] | do not func?on as METTL3 degraders | 1.82 µM | no significant changes | no significant changes | 0.0014 µM
CC1(C)CCN(Cc2ccc3nc(Cn4cc(-c5cc(Br)cc6[nH]ncc56)nn4)cn3c2)CC1 [STM3006, reference compound] | do not func?on as METTL3 degraders |  |  |  | 
COc1cc2c(cc1Cc1cccc(Cl)c1F)c(=O)c(C(=O)O)cn2[C@H](CO)C(C)C [Elvitegravir, reference compound] | do not func?on as METTL3 degraders |  |  |  | 
